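Tested at 5 concentrations; 48 h exposure; 96-well plates; endpoints linearly interpolated, else capped at highest concentration. Here, GI50 denotes the concentration required for 50% inhibition of growth. TGI denotes the concentration required for complete inhibition of growth.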
Key:
Assay in all cases: inhibition of tumour cell growth, NCI panel, 48 h
SW-620 colon = test system: SW-620 colon
BT-549 breast = test system: BT-549 breast
COLO 205 colon = test system: COLO 205 colon
SF-295 CNS = test system: SF-295 CNS
MDA-N = test system: MDA-N
OVCAR-4 ovarian = test system: OVCAR-4 ovarian
HCC-2998 colon = test system: HCC-2998 colon
HT29 colon = test system: HT29 colon
SK-MEL-28 melanoma = test system: SK-MEL-28 melanoma
MDA-MB-231 breast = test system: MDA-MB-231 breast
NCI-H522 lung = test system: NCI-H522 lung
A498 renal = test system: A498 renal
MALME-3M melanoma = test system: MALME-3M melanoma
HCT-15 colon = test system: HCT-15 colon
TK-10 renal = test system: TK-10 renal
RXF 393 renal = test system: RXF 393 renal
SK-MEL-2 melanoma = test system: SK-MEL-2 melanoma
OVCAR-3 ovarian = test system: OVCAR-3 ovarian
MOLT-4 leukemia = test system: MOLT-4 leukemia
KM12 colon = test system: KM12 colon
DU-145 prostate = test system: DU-145 prostate
HOP-92 NSCLC = test system: HOP-92 NSCLC
T-47D breast = test system: T-47D breast
SNB-75 CNS = test system: SNB-75 CNS
LOX IMVI melanoma = test system: LOX IMVI melanoma
SN12C renal = test system: SN12C renal
SNB-19 CNS = test system: SNB-19 CNS
OVCAR-5 ovarian = test system: OVCAR-5 ovarian
MCF7 breast = test system: MCF7 breast
NCI/ADR-RES ovarian = test system: NCI/ADR-RES ovarian
HCT-116 colon = test system: HCT-116 colon
SR leukemia = test system: SR leukemia
EKVX NSCLC = test system: EKVX NSCLC
RPMI-8226 leukemia = test system: RPMI-8226 leukemia
HL-60(TB) leukemia = test system: HL-60(TB) leukemia
MDA-MB-435 = test system: MDA-MB-435
NCI-H226 lung = test system: NCI-H226 lung
NCI-H23 lung = test system: NCI-H23 lung
ACHN renal = test system: ACHN renal
CCRF-CEM leukemia = test system: CCRF-CEM leukemia
K-562 leukemia = test system: K-562 leukemia
UACC-62 melanoma = test system: UACC-62 melanoma
A549 NSCLC = test system: A549 NSCLC
HS 578T breast = test system: HS 578T breast
OVCAR-8 ovarian = test system: OVCAR-8 ovarian
PC-3 prostate = test system: PC-3 prostate
UACC-257 melanoma = test system: UACC-257 melanoma
NCI-H460 lung = test system: NCI-H460 lung
CAKI-1 renal = test system: CAKI-1 renal
SF-268 CNS = test system: SF-268 CNS
SF-539 CNS = test system: SF-539 CNS
UO-31 renal = test system: UO-31 renal
U251 CNS = test system: U251 CNS
IGROV1 ovarian = test system: IGROV1 ovarian
SK-OV-3 ovarian = test system: SK-OV-3 ovarian
M14 melanoma = test system: M14 melanoma
786-0 renal = test system: 786-0 renal
HOP-62 NSCLC = test system: HOP-62 NSCLC
SK-MEL-5 melanoma = test system: SK-MEL-5 melanoma

ClC1=C(Cl)C(Cl)(Cl)SS1
TGI (SW-620 colon): 5820 nM | TGI (BT-549 breast): > 10000 nM | TGI (COLO 205 colon): 3730 nM | TGI (SF-295 CNS): > 10000 nM | TGI (MDA-N): > 10000 nM | TGI (OVCAR-4 ovarian): 9810 nM | TGI (HCC-2998 colon): > 10000 nM | TGI (HT29 colon): > 10000 nM | TGI (SK-MEL-28 melanoma): > 10000 nM | TGI (MDA-MB-231 breast): > 10000 nM | TGI (NCI-H522 lung): > 6850 nM | TGI (A498 renal): > 10000 nM | TGI (MALME-3M melanoma): > 6610 nM | TGI (HCT-15 colon): > 10000 nM | TGI (TK-10 renal): > 10000 nM | TGI (RXF 393 renal): > 10000 nM | TGI (SK-MEL-2 melanoma): > 10000 nM | TGI (OVCAR-3 ovarian): > 9500 nM | TGI (MOLT-4 leukemia): 3610 nM | TGI (KM12 colon): > 10000 nM | TGI (DU-145 prostate): > 10000 nM | TGI (HOP-92 NSCLC): > 8630 nM | TGI (T-47D breast): > 10000 nM | TGI (SNB-75 CNS): > 10000 nM | TGI (LOX IMVI melanoma): > 10000 nM | TGI (SN12C renal): > 10000 nM | TGI (SNB-19 CNS): > 10000 nM | TGI (OVCAR-5 ovarian): > 10000 nM | TGI (MCF7 breast): > 10000 nM | TGI (NCI/ADR-RES ovarian): > 10000 nM | TGI (HCT-116 colon): > 6720 nM | TGI (SR leukemia): 5350 nM | TGI (EKVX NSCLC): > 10000 nM | TGI (RPMI-8226 leukemia): 6730 nM | TGI (HL-60(TB) leukemia): > 7320 nM | TGI (MDA-MB-435): > 10000 nM | TGI (NCI-H226 lung): > 10000 nM | TGI (NCI-H23 lung): > 10000 nM | TGI (ACHN renal): > 10000 nM | TGI (CCRF-CEM leukemia): > 8000 nM | TGI (K-562 leukemia): > 7820 nM | TGI (UACC-62 melanoma): > 10000 nM | TGI (A549 NSCLC): > 10000 nM | TGI (HS 578T breast): > 10000 nM | TGI (OVCAR-8 ovarian): > 10000 nM | TGI (PC-3 prostate): > 10000 nM | TGI (UACC-257 melanoma): > 7950 nM | TGI (NCI-H460 lung): > 10000 nM | TGI (CAKI-1 renal): 6760 nM | TGI (SF-268 CNS): > 10000 nM | TGI (SF-539 CNS): > 10000 nM | TGI (UO-31 renal): > 6060 nM | TGI (U251 CNS): > 10000 nM | TGI (IGROV1 ovarian): > 10000 nM | TGI (SK-OV-3 ovarian): > 10000 nM | TGI (M14 melanoma): > 10000 nM | TGI (786-0 renal): > 6030 nM | TGI (HOP-62 NSCLC): > 10000 nM | TGI (SK-MEL-5 melanoma): > 10000 nM

COc1ccc2nc3cccc([N+](=O)[O-])c3c(NCCNCCO)c2c1
GI50 (SW-620 colon): 19.8 nM | TGI (SW-620 colon): 610 nM | GI50 (BT-549 breast): 51 nM | TGI (BT-549 breast): 173 nM | GI50 (COLO 205 colon): 13.7 nM | TGI (COLO 205 colon): 54.5 nM | GI50 (SF-295 CNS): 23.8 nM | TGI (SF-295 CNS): 188 nM | GI50 (MDA-N): 37 nM | TGI (MDA-N): 156 nM | GI50 (OVCAR-4 ovarian): 19.9 nM | TGI (OVCAR-4 ovarian): 51.5 nM | GI50 (HCC-2998 colon): 41.7 nM | TGI (HCC-2998 colon): 206 nM | GI50 (HT29 colon): 12 nM | TGI (HT29 colon): 99.1 nM | GI50 (SK-MEL-28 melanoma): 102 nM | TGI (SK-MEL-28 melanoma): 352 nM | GI50 (MDA-MB-231 breast): 411 nM | TGI (MDA-MB-231 breast): 8250 nM | TGI (NCI-H522 lung): 14.6 nM | GI50 (A498 renal): 26.2 nM | TGI (A498 renal): 70.9 nM | GI50 (MALME-3M melanoma): 25 nM | TGI (MALME-3M melanoma): 124 nM | GI50 (HCT-15 colon): 206 nM | GI50 (TK-10 renal): 29.1 nM | TGI (TK-10 renal): 272 nM | GI50 (RXF 393 renal): 18.7 nM | TGI (RXF 393 renal): 47.4 nM | GI50 (SK-MEL-2 melanoma): 16.7 nM | TGI (SK-MEL-2 melanoma): 34.4 nM | GI50 (OVCAR-3 ovarian): 26.5 nM | TGI (OVCAR-3 ovarian): 66.7 nM | GI50 (MOLT-4 leukemia): 20.7 nM | TGI (MOLT-4 leukemia): 229 nM | GI50 (KM12 colon): 60 nM | TGI (KM12 colon): 250 nM | GI50 (DU-145 prostate): 10.4 nM | TGI (DU-145 prostate): 746 nM | GI50 (HOP-92 NSCLC): 23 nM | TGI (HOP-92 NSCLC): 64.9 nM | GI50 (T-47D breast): 81.3 nM | TGI (T-47D breast): 619 nM | GI50 (SNB-75 CNS): 36.7 nM | TGI (SNB-75 CNS): 151 nM | GI50 (LOX IMVI melanoma): 18.4 nM | TGI (LOX IMVI melanoma): 72.1 nM | GI50 (SN12C renal): 46.8 nM | TGI (SN12C renal): 306 nM | GI50 (SNB-19 CNS): 130 nM | TGI (SNB-19 CNS): 636 nM | GI50 (OVCAR-5 ovarian): 32.7 nM | TGI (OVCAR-5 ovarian): 185 nM | GI50 (MCF7 breast): 10.2 nM | TGI (MCF7 breast): 100 nM | GI50 (NCI/ADR-RES ovarian): 660 nM | TGI (NCI/ADR-RES ovarian): 6700 nM | GI50 (HCT-116 colon): 19.6 nM | TGI (HCT-116 colon): 753 nM | GI50 (SR leukemia): 16.7 nM | TGI (SR leukemia): 3280 nM | GI50 (EKVX NSCLC): 104 nM | TGI (EKVX NSCLC): 426 nM | GI50 (RPMI-8226 leukemia): 19.8 nM | TGI (RPMI-8226 leukemia): 111 nM | GI50 (HL-60(TB) leukemia): 21.2 nM | TGI (HL-60(TB) leukemia): 4140 nM | GI50 (MDA-MB-435): 25.6 nM | TGI (MDA-MB-435): 90.3 nM | GI50 (NCI-H226 lung): 52.2 nM | TGI (NCI-H226 lung): 340 nM | GI50 (NCI-H23 lung): 104 nM | TGI (NCI-H23 lung): 2700 nM | GI50 (ACHN renal): 15.9 nM | TGI (ACHN renal): 70.1 nM | GI50 (CCRF-CEM leukemia): 24 nM | TGI (CCRF-CEM leukemia): 173 nM | GI50 (K-562 leukemia): 15.3 nM | TGI (K-562 leukemia): 121 nM | GI50 (UACC-62 melanoma): 16.2 nM | TGI (UACC-62 melanoma): 39.7 nM | GI50 (A549 NSCLC): 27.4 nM | TGI (A549 NSCLC): 119 nM | GI50 (HS 578T breast): 50.1 nM | TGI (HS 578T breast): 361 nM | GI50 (OVCAR-8 ovarian): 13 nM | TGI (OVCAR-8 ovarian): 151 nM | TGI (PC-3 prostate): 130 nM | GI50 (UACC-257 melanoma): 51.8 nM | TGI (UACC-257 melanoma): 189 nM | GI50 (NCI-H460 lung): 11.4 nM | TGI (NCI-H460 lung): 102 nM | GI50 (CAKI-1 renal): 39.6 nM | TGI (CAKI-1 renal): 502 nM | GI50 (SF-268 CNS): 18.4 nM | TGI (SF-268 CNS): 92.5 nM | GI50 (SF-539 CNS): 43.3 nM | TGI (SF-539 CNS): 186 nM | GI50 (UO-31 renal): 106 nM | TGI (UO-31 renal): 336 nM | GI50 (U251 CNS): 22.6 nM | TGI (U251 CNS): 155 nM | GI50 (IGROV1 ovarian): 17.3 nM | TGI (IGROV1 ovarian): 71.7 nM | GI50 (SK-OV-3 ovarian): 45.9 nM | TGI (SK-OV-3 ovarian): 388 nM | GI50 (M14 melanoma): 19.8 nM | TGI (M14 melanoma): 53.4 nM | GI50 (786-0 renal): 21.2 nM | TGI (786-0 renal): 102 nM | GI50 (HOP-62 NSCLC): 35.2 nM | TGI (HOP-62 NSCLC): 169 nM | GI50 (SK-MEL-5 melanoma): 11.3 nM | TGI (SK-MEL-5 melanoma): 25.8 nM
